Test results reported in patent US8575089B2, “Composition for preventing or treating inflammation” (University-Industry Cooperation Group of Kyung Hee, priority 2009, dated 2013).
Where no end group is shown, it is not given here.

Assays:
[1] = system: mononuclear cells isolated from peripheral blood; assay: IL-6 and IL-10 expression (ELISA) in peripheral blood mononuclear cells treated with SP; type: cell-based, C57b1/6 mice; settings: peripheral blood mononuclear cells in T-cell activation media (ConA); 10 nmole/kg SP; 4.5, 10, 24 hours; FIG. 1
Description: Peripheral blood was collected from C57b1/6 mice (8 weeks, sex; male, n=5, Average Weight; 20 g), diluted doubly with PBS, carefully placed on Ficoll in a tube, and then centrifuged at 2200 rpm for 20 minutes. By centrifuging, from the bottom, an erythrocyte layer, a ficoll layer, a mononuclear cell layer, and a plasma layer were obtained in order. The mononuclear cell layer and plasma layer were isolated, excluding the erythrocyte layer and ficoll layer, and then washed one time with PBS. Then, the number of cells was counted; the cells with a concentration of 1×10^5/0.2 ml were seeded onto T-cell activation media (lymphocyte activation media; RPMI, 10% FBS, 100 μM 2-mercaptoetanol, 20 μg/ml ConA); then the cells were cultured at an incubator of 37° C.; and then culture supernatant was taken at 4.5 hours, 10 hours, and 24 hours. For SP-treated group, 10 nmole/kg of SP dissolved in a physiological saline was treated to T-cell activation media. […] After 30 minutes, 100 μl of stop codon was treated to stop the reaction; the optical density was measured at 450 nm; the amounts of cytokines were converted based on a protein conversion formula by a standard sample; and then the results were shown in FIG. 1.

leukocytes in blood = assay: Corneal epithelial burn model: number of leukocytes in blood; type: in vivo, New Zealand white rabbit; settings: rabbit, alkali burn of cornea; 5 nmole/kg SP i.v. twice; after three days after burning; vs continuously increased without SP; FIG. 6
Description: (§1) Ketalar (50 mg/ml, Yuhan Corporation) and Rompun (23.32 mg (Xylazine hydrochloride)/ml, Bayer Korea Corporation) were mixed in a rate of 2:1, and then total 900 μl (Ketalar 600 μl: Rompun 300 μl) was injected into muscles of rabbits (New Zealand white rabbit, Male, 2.5 kg, n=4). After the intramuscular injection, 300 μl (Ketalar 200 μl: Rompun 100 μl) of the same anesthetic drug was injected in the rabbit's ear vein.
A 6 mm paper disc fully wetted by 1N NaOH was contacted to a limbus part of rabbit's cornea for 10 seconds. After alkali burning, corneal epithelium was removed in a size of the paper disc. The rabbit's eyes were quickly washed with a physiological saline immediately after alkali burning. At the same time, 5 nmole/kg of SP dissolved in a physiological saline was intravenously injected, and then after 24 hours, was injected once more (immediately after burning and at 24 hours after burning). For the control, PBS with the same volume was injected (injection Volume: 1 ml). […]
2 ml of the whole 10 ml was used for counting blood cells and the number of leukocytes was analyzed in Neodin (Company for analysis of blood cells). Concretely, 2 ml of blood was added to a vial including EDTA; it was well mixed; then the whole leukocyte level was analyzed in an automatic analyzer (SYSMEX XE-2100 automatic analyzer from SYSMEX Corporation [Japan]); and then the results were shown in FIG. 6.

[2] = system: inflammatory cells in blood; assay: Radiation-irradiating model: CBC of inflammatory cells in blood; type: in vivo, C57b1/6 mice; settings: mice, 8 Gy, 5 nmole/kg SP i.v. one day before and immediately after irradiation, 4.5 hours after irradiation, vs group without SP
Description: 5 nmole/kg of SP dissolved in a physiological saline was injected to a tail vein of C57b1/6 mice (8 weeks, sex; male, n=4, Average weight; 20 g) one day before irradiation and immediately after irradiation. The irradiation was performed at 8 Gy radiation in a Gamma lay radiation irradiator (^137Cs, Atomic Energy of Canada, Mississauga, Canada). The mice were sacrificed at 4.5 hours and one day after irradiation, and then the blood was collected. The part of the blood was used for analyzing CBC (Complete Blood Count) and the remaining blood was used to isolate serum and then analyze cytokines
200 μl of mouse's blood was taken at 4.5 hours and one day after 8 Gy radiation; it was added to a vial including a small amount of EDTA and then analyzed for CBC. […] It was confirmed that SP has an effect of inhibiting an increase of inflammatory cells caused by irradiation.

[3] = system: hematopoietic stem cells in blood; assay: Corneal epithelial burn model: HSC-CFU assay of blood cells; type: in vivo, New Zealand white rabbit; settings: rabbit, alkali burn of cornea; 5 nmole/kg SP i.v. immediately and 24 hours after burning; without SP peak at five days; FIG. 5
Description: as §1
A 6 mm paper disc fully wetted by 1N NaOH was contacted to a limbus part of rabbit's cornea for 10 seconds. After alkali burning, corneal epithelium was removed in a size of the paper disc. The rabbit's eyes were quickly washed with a physiological saline immediately after alkali burning. At the same time, 5 nmole/kg of SP dissolved in a physiological saline was intravenously injected, and then after 24 hours, was injected once more (immediately after burning and at 24 hours after burning). For the control, PBS with the same volume was injected (injection Volume: 1 ml).
Peripheral blood was collected from ear veins in 10 ml at one, three, five and seven days after alkali burning. […]
1×10^4 cells among the whole cells was used for HSC-CFU assay. […] The cells were cultured in the media for 2 weeks (5% CO2, 37° C.), the number of colonies was counted by using a microscope (Leica) and then the results were shown in FIG. 5.

Substance-P (RPKPQQFFGLM; not fully specified; ends and bridges not checked; UniProt P20366 58-68, looked up)
expression level of IL-6 in culture supernatant [1]: no a significant difference | expression level of IL-10 in culture supernatant [1]: increased | number of leukocytes in blood (increase % based on Day 0-level) (leukocytes in blood): sharply decreased | leukocyte (White Blood Cell) in blood ([2]; FIG. 7A): decreased at least two times | mononuclear cell in blood ([2]; FIG. 7B): decreased at least two times | neutrophilic leukocyte in blood ([2]; FIG. 7C): decreased at least two times | decrease of eosinocyte in blood ([2]; FIG. 7D): 30-40% | number of HSC (HSC-CFU colonies) in blood [3]: increased at early stage and then decreased immediately three days after injection
